The subject of data set [1] is Aβ40 in conditioned medium of cells stably expressing Amyloid Precursor Protein (APP). The experiment in a line: In vitro BACE cell-based assay (Aβ40 in conditioned medium, sandwich ELISA).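 Further: compounds added as a dilution series, secreted peptide quantified by europium time-resolved fluorescence readout, potency fitted from percent of control versus compound concentration.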 The following applies: Homo sapiens. (In general: An ELISA detects its analyte on a solid surface through an enzyme-linked reagent.)
A further data set concerns the target CYP3A4 (CYP3A) (Homo sapiens, UniProt P08684). Put plainly: in vitro. The following applies: microsomes, pH 7.4.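 Further: inhibition of CYP3A-mediated 1-hydroxymidazolam formation after 10 min incubation with NADPH, quantified by HPLC MS relative to metabolite produced without test compound.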
Data set [2] is described as follows: Microsomal stability assay, rat liver microsomes.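 Further: rat liver microsomes (0.25 mg/mL) with about 1 µM compound plus 1 mM NADPH, pH 7.4, 37 °C for 30 min, parent left measured by LC-MS/MS against 0 min.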 The following applies: rat liver microsomes. (Liver microsomes are vesicles of endoplasmic reticulum, rich in cytochrome P450 enzymes.)
Data set [3] in a line: Microsomal stability assay, human liver microsomes.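 Further: pooled human liver microsomes at 0.25 mg/mL with 1 µM compound and NADPH at 37 °C, pH 7.4, for 30 min, unchanged parent quantified by LC-MS/MS against the 0 min sample.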 The following applies: human liver microsomes.
Data set [4] deals with Beta Secretase enzyme (BACE) (Homo sapiens, UniProt P56817). Put plainly: In vitro enzymatic BACE FRET (fluorescence resonance energy transfer) assay.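 Further: fluorescence read after 1 h with 50 nM quenched peptide substrate spanning the BACE cleavage site, in pH 4.2 acetate buffer containing 10% DMSO and nonionic detergent.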 The format is biochemical.
Beta Secretase enzyme (BACE), sequence (P56817 46-501): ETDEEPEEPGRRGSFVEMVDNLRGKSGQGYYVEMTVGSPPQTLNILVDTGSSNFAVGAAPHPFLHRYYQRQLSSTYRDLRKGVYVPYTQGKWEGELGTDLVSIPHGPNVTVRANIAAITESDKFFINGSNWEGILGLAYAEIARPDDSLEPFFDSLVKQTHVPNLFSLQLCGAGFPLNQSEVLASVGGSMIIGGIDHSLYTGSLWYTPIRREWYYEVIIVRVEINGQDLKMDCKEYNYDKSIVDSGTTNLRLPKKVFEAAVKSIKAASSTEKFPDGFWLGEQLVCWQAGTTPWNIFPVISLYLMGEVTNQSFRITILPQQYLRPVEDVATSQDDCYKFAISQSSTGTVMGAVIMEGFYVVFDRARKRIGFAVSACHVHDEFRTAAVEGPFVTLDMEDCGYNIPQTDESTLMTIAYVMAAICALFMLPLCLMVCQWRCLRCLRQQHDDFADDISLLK
The target in another data set is CYP2D6 (Homo sapiens, UniProt P10635). Put plainly: CYP2D6 inhibition assay (bufuralol, pooled human liver microsomes).
CYP2D6, sequence (P10635 whole entry): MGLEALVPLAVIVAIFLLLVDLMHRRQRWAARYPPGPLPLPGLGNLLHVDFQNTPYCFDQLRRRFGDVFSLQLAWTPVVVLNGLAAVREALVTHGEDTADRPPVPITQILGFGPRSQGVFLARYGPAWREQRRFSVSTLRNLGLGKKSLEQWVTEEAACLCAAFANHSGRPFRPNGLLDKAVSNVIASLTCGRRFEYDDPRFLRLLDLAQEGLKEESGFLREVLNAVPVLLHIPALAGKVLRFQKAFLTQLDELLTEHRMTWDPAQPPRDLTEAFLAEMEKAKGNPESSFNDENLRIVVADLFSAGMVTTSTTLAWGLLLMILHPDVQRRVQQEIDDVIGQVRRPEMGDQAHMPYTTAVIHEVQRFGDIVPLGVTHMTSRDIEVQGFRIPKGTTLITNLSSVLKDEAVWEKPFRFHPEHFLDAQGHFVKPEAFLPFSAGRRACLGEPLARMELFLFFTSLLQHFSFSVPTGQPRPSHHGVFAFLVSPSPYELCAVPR
Where [5] appears, read: HEK293, HEK cells, read-out: HEK cell assay (IC50).
Setting [6] is: read-out: BACE1 FRET assay (IC50).
The mark [7] stands for this setting: HEK293, HEK cell-based assay IC50, read-out: HEK cell assay.
The mark [8] stands for this setting: BACE enzyme assay IC50, read-out: BACE1 FRET assay.
Setting [9] is: 2D6 IC50 (uM), CYP2D6 inhibition.

Like-named read-outs stand apart in the source and are kept apart here.

CYP3A4 (CYP3A), sequence (P08684 2-503): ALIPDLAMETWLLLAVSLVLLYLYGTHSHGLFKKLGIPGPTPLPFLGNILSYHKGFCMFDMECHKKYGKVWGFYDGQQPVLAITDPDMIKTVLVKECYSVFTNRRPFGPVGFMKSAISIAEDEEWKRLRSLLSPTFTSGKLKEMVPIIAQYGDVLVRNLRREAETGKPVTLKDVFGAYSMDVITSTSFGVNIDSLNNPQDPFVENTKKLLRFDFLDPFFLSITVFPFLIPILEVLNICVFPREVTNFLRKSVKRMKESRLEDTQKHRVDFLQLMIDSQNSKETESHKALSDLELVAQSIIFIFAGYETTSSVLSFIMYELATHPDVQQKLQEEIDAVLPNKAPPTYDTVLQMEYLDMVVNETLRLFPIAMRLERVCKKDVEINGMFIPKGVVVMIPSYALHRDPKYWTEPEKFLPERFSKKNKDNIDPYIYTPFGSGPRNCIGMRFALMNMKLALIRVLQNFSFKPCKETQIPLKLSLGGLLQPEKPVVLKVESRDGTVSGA

As to `COCC(=O)N[C@@H](Cc1ccc2c(c1)OCO2)[C@H](O)CN[C@H]1CC2(CCC2)Oc2cnc(CC(C)C)cc21` [compound 664], the IC50 in data set [1] (setting [5]) was 192 nM; at CYP3A4 (CYP3A), at most 30 nM; in data set [4] (setting [6]), 118 nM; against CYP2D6 (2D6 IC50, CYP2D6 inhibition), 2.3 µM. In addition, the RLM in data set [2] worked out at 276 µL/min/mg. For the same compound, the HLM in data set [3] amounted to 193 µL/min/mg.

As to `CO[C@H](C)C(=O)N[C@@H](Cc1ccc2c(c1)OCO2)[C@H](O)CN[C@H]1CC2(CCC2)Oc2nc3c(cc21)[C@H](C(C)C)CO3` [compound 665], the IC50 in data set [1] (setting [5]) is 249 nM; against CYP3A4 (CYP3A), 200 nM; in data set [4] (setting [6]), 927 nM; against CYP2D6 (2D6 IC50, CYP2D6 inhibition), 4 µM. In data set [2], this compound showed an RLM of 126 µL/min/mg. Moreover, the HLM in data set [3] was determined as 61 µL/min/mg.

Consider `CO[C@H](C)C(=O)N[C@@H](Cc1ccc2c(c1)OCO2)[C@H](O)CN[C@H]1CC2(CCC2)Oc2cnc(CC(C)C)cc21` [compound 666], for which the IC50 was 175 nM in data set [1] (setting [5]); at most 30 nM against CYP3A4 (CYP3A); 124 nM in data set [4] (setting [6]); 2.4 µM at CYP2D6 (2D6 IC50, CYP2D6 inhibition). In data set [2], this compound showed an RLM of 228 µL/min/mg. In data set [3], this compound yielded an HLM of 140 µL/min/mg.

For the compound `COCC(=O)N[C@@H](Cc1cc(F)cc(F)c1)[C@H](O)CN[C@H]1CC2(CCC2)Oc2c1cc(CC(C)C)nc2Cl` [compound 667], the IC50 was found to be 54 nM in data set [1] (setting [5]); 600 nM against CYP3A4 (CYP3A); 5 nM in data set [4] (setting [6]); 6.3 µM on CYP2D6 (2D6 IC50, CYP2D6 inhibition). The compound also registered an RLM in data set [2] of 682 µL/min/mg. Moreover, in data set [3], the HLM came to 399 µL/min/mg.

Turning to `COCC(=O)N[C@@H](Cc1cccc(F)c1)[C@H](O)CN[C@H]1CC2(CCC2)Oc2c(-c3ccncc3F)cc(CC(C)(C)C)cc21` [compound 668], the IC50 in data set [1] (setting [5]) amounted to 18 nM; at CYP3A4 (CYP3A), 100 nM; in data set [4] (setting [6]), 4 nM; against CYP2D6 (2D6 IC50, CYP2D6 inhibition) it was 2.9 µM. This compound registered an RLM in data set [2] of 197 µL/min/mg. In data set [3], the HLM worked out at 118 µL/min/mg.

In the case of `COCC(=O)N[C@@H](Cc1ccc2c(c1)OCO2)[C@H](O)CN[C@H]1CC2(CCC2)Oc2c1cc(CC(C)C)nc2-c1ccncc1` [compound 669], the IC50 was 87 nM in data set [1] (setting [7]), at most 30 nM against CYP3A4 (CYP3A), 34 nM in data set [4] (setting [8]) and 0.3 µM against CYP2D6 (setting [9]). Besides, in data set [2], the “RLM” value was 77 µL/min/mg. For the same compound, the “HLM” value in data set [3] was found to be 45 µL/min/mg.

On to `CO[C@H](C)C(=O)N[C@@H](Cc1ccc2c(c1)OCO2)[C@H](O)CN[C@H]1CC2(CCC2)Oc2c1cc(CC(C)C)nc2-c1ccncc1` [compound 670], for which the IC50 was 294 nM in data set [1] (setting [7]), at most 30 nM against CYP3A4 (CYP3A), 60 nM in data set [4] (setting [8]) and 0.8 µM against CYP2D6 (setting [9]). Moreover, the “RLM” value in data set [2] is 100 µL/min/mg. Besides, the “HLM” value in data set [3] stood at 40 µL/min/mg.

As to `CC(=O)N[C@@H](Cc1cc(F)cc(-c2cscn2)c1)[C@H](O)CN[C@H]1CC2(CCC2)Oc2ncc(CC(C)(C)C)cc21` [compound 672], the IC50 in data set [1] (setting [7]) came to 5 nM; against CYP3A4 (CYP3A), 400 nM; in data set [4] (setting [8]) it was 4 nM; against CYP2D6 (setting [9]) it was 2.7 µM. Moreover, in data set [2], the “RLM” value is 134 µL/min/mg. Moreover, the “HLM” value in data set [3] is 358 µL/min/mg.

As for `CO[C@H](C)C(=O)N[C@@H](Cc1ccc2c(c1)OCO2)[C@H](O)CN[C@H]1CC(C)(C)Oc2ncc(CC(C)(C)C)cc21` [compound 674], the IC50 was found to be 37 nM in data set [1] (setting [7]), 100 nM on CYP3A4 (CYP3A), 33 nM in data set [4] (setting [8]) and 10.5 µM against CYP2D6 (setting [9]). In data set [2], the “RLM” value came out at 128 µL/min/mg. In addition, in data set [3], the “HLM” value came to 26 µL/min/mg.

In the case of `CO[C@H](C)C(=O)N[C@@H](Cc1ccc(F)c(F)c1)[C@H](O)CN[C@H]1CC(C)(C)Oc2ncc(CC(C)(C)C)cc21` [compound 675], the IC50 in data set [1] (setting [7]) was determined as 13 nM; on CYP3A4 (CYP3A), 2000 nM; in data set [4] (setting [8]), 9 nM; on CYP2D6 (setting [9]), 21.8 µM. The “RLM” value in data set [2] is 411 µL/min/mg. The “HLM” value in data set [3] was 543 µL/min/mg.

On to `COCC(=O)N[C@@H](Cc1ccc(F)c(F)c1)[C@H](O)CN[C@H]1CC(C)(C)Oc2ncc(CC(C)(C)C)cc21` [compound 676], for which the IC50 in data set [1] (setting [7]) was 11 nM; against CYP3A4 (CYP3A), 2000 nM; in data set [4] (setting [8]), 10 nM; against CYP2D6 (setting [9]), 2.9 µM. The “RLM” value in data set [2] was 411 µL/min/mg. In addition, the “HLM” value in data set [3] turned out to be 463 µL/min/mg.

Turning to `CC(=O)N[C@@H](Cc1ccc2c(c1)OCO2)[C@H](O)CN[C@H]1CC(C)(C)Oc2ncc(CC(C)(C)C)cc21` [compound 679], the IC50 in data set [1] (setting [7]) turned out to be 12 nM; against CYP3A4 (CYP3A), 200 nM; in data set [4] (setting [8]), 19 nM; at CYP2D6 (setting [9]), 5.7 µM. Besides, the “RLM” value in data set [2] was found to be 138 µL/min/mg. Further, the “HLM” value in data set [3] is 24 µL/min/mg.

For `CNc1nc(CC(C)C)cc2c1OC1(CCC1)C[C@@H]2NC[C@@H](O)[C@H](Cc1ccc2c(c1)OCO2)NC(=O)[C@@H](C)OC` [compound 680], the IC50 in data set [1] (setting [7]) was 25 nM; against CYP3A4 (CYP3A), 500 nM; in data set [4] (setting [8]), 140 nM; at CYP2D6 (setting [9]), 14 µM. Also, the “RLM” value in data set [2] was found to be 317 µL/min/mg. Besides, the “HLM” value in data set [3] is 220 µL/min/mg.

For `CNc1nc(CC(C)C)cc2c1OC1(CCC1)C[C@@H]2NC[C@@H](O)[C@H](Cc1ccc2c(c1)OCO2)NC(=O)COC` [compound 681], the IC50 in data set [1] (setting [7]) amounted to 14 nM; against CYP3A4 (CYP3A) it was 800 nM; in data set [4] (setting [8]), 64 nM; against CYP2D6 (setting [9]), 9.2 µM. Besides, the “RLM” value in data set [2] was 392 µL/min/mg. Moreover, the “HLM” value in data set [3] was found to be 197 µL/min/mg.

Regarding `COCC(=O)N[C@@H](Cc1ccc(F)c(-c2cscn2)c1)[C@H](O)CN[C@H]1CC2(CCC2)Oc2ncc(CC(C)(C)C)cc21` [compound 683, N-((1S,2R)-3-(((4′S)-6′-(2,2-dimethylpropyl)-3′,4′-dihydrospiro[cyclobutane-1,2′-pyrano[2,3-b]pyridin]-4′-yl)amino)-1-(4-fluoro-3-(1,3-thiazol-4-yl)benzyl)-2-hydroxypropyl)-2-methoxyacetamide], the IC50 in data set [1] (setting [7]) worked out at 31 nM; at CYP3A4 (CYP3A), 200 nM; in data set [4] (setting [8]), 9 nM; against CYP2D6 (setting [9]) it was 2.3 µM. For the same compound, the “RLM” value in data set [2] stood at 61 µL/min/mg. Further, in data set [3], the “HLM” value stood at 102 µL/min/mg.

In the case of `COCC(=O)N[C@@H](Cc1ccc(F)c(-c2cncs2)c1)[C@H](O)CN[C@H]1CC2(CCC2)Oc2ncc(CC(C)(C)C)cc21` [compound 684, N-((1S,2R)-3-(((4′S)-6′-(2,2-dimethylpropyl)-3′,4′-dihydrospiro[cyclobutane-1,2′-pyrano[2,3-b]pyridin]-4′-yl)amino)-1-(4-fluoro-3-(1,3-thiazol-5-yl)benzyl)-2-hydroxypropyl)-2-methoxyacetamide], the IC50 in data set [1] (setting [7]) was 12 nM; at CYP3A4 (CYP3A) it was 100 nM; in data set [4] (setting [8]) it was 5 nM; on CYP2D6 (setting [9]), 0.2 µM. Also, the “RLM” value in data set [2] was determined as 114 µL/min/mg. Moreover, the “HLM” value in data set [3] worked out at 56 µL/min/mg.

In the case of `Cc1cccc(CN2CCO[C@@H](C(=O)N[C@@H](Cc3ccc(F)cc3)[C@H](O)CN[C@H]3CC4(CCC4)Oc4ncc(CC(C)(C)C)cc43)C2)c1` [compound 685], the IC50 in data set [1] (setting [7]) is 12 nM; against CYP3A4 (CYP3A) it was 200 nM; in data set [4] (setting [8]), 13 nM; against CYP2D6 (setting [9]), 3.1 µM. Also, in data set [2], the “RLM” value was 283 µL/min/mg. The “HLM” value in data set [3] worked out at 662 µL/min/mg.
